From ChEMBL document CHEMBL6121052, “Design of ROS-Triggered Sesquiterpene Lactone SC Prodrugs as TrxR1 Covalent Inhibitors for the Treatment of Non-Small Cell Lung Cancer” (J Med Chem, 2025)
Calls of active or inactive are those of the source. The rule behind the calls is not given here.

Experiments:
[1] = Toxicity in BALB/c mouse assessed as kidney damage at 5 to 10 mg/kg, po administered every 2 days for 2 weeks by H and E staining based analysis; format: organism-based; settings: in vivo, 336 h, dose 5-10 mg/kg
NCI-H1299 [2] = experiment: Induction of ferroptosis in human NCI-H1299 cells assessed as cell death by MTT assay; format: functional, cell-based
A549 [3] = experiment: Downregulation of TrxR1 level in human A549 cells upto 10 uM incubated for 24 hrs by Western blot analysis; format: functional, cell-based
NCI-H1299 [4] = experiment: Inhibition of colony formation in human NCI-H1299 cells assessed as reduction in colony number at 4 uM incubated for 14 days by crystal violet staining based analysis; format: functional, cell-based; settings: time 14.0 day
[5] = Cmax in male Sprague-Dawley rat at 10 mg/kg, iv measured upto 24 hrs by LC-MS/MS analysis; format: ADME, organism-based; settings: in vivo
NCI-H1299 [6] = experiment: Antitumor activity against human NCI-H1299 cells xenografted in BALB/c mouse assessed as decrease in GPX4 expression at 5 to 10 mg/kg, po administered every 2 days for 2 weeks by IHC analysis; format: functional, organism-based; settings: dose 5-10 mg/kg
NCI-H1299 [7] = experiment: Induction of apoptosis in human NCI-H1299 cells assessed as early apoptotic cells at 10 uM measured after 48 hrs by Annexin V/FITC staining based flow cytometric analysis (reference value: 1.14 %); format: functional
[8] = MRT (0 to t) in male Sprague-Dawley rat at 10 mg/kg, iv measured upto 24 hrs by LC-MS/MS analysis; format: ADME, organism-based; settings: in vivo
A549 [9] = experiment: Induction of ferroptosis in human A549 cells assessed as effect on SLC7A11 protein expression at 10 uM incubated for 24 hrs by Western blotting analysis; format: functional, cell-based
NSCLC = experiment: Downregulation of TrxR1 expression in human NSCLC cells by IHC analysis; format: functional, cell-based
[10] = Toxicity in BALB/c mouse assessed as liver damage at 5 to 10 mg/kg, po administered every 2 days for 2 weeks by H and E staining based analysis; format: organism-based; settings: in vivo, 336 h, dose 5-10 mg/kg
NCI-H1299 [11] = experiment: Induction of apoptosis in human NCI-H1299 cells assessed as decrease in BCl-2 expression at upto 10 uM incubated for 24 hrs by Western blot analysis; format: functional, cell-based
NCI-H1299 [12] = experiment: Antitumor activity against human NCI-H1299 cells xenografted in BALB/c mouse assessed as decrease in Ki-67 expression at 5 to 10 mg/kg, po administered every 2 days for 2 weeks by IHC analysis; format: functional, organism-based; settings: dose 5-10 mg/kg

In the case of `CCCNC(=O)O[C@@H]1/C=C(\C)C[C@H]2C=C(C[C@@H]3OC(=O)[C@H](CSC(=S)N(C)C)[C@H]31)C(=O)O2`, the Activity [1] is reported as “Non-toxic”, the Activity (NCI-H1299 [2]) is reported as “Active” and the Activity (A549 [3]) is reported as “Active”. For the same compound, the inhibition (NCI-H1299 [4]) was “Active”, the Cmax [5] was 2310 ng/mL and the Activity (NCI-H1299 [6]) was “Active”. The Activity (NCI-H1299 [7]) was 8.46%, the MRT last at 24 h [8] was 4.15 h and the Activity (A549 [9]) was “Active”. For the same compound, the Activity (NSCLC) was “Active”, the Activity [10] was “Non-toxic” and the Activity (NCI-H1299 [11]) was “Active”. For the same compound, the Activity (NCI-H1299 [12]) was “Active”.
